Results reported in US20230407243A1, “GENETIC PLATFORM TO INVESTIGATE THE FUNCTIONS OF BACTERIAL DRUG EFFLUX PUMPS” (priority 2022, published 2023).
Read-outs that look alike come from different tables or passages of the source.

Key:
Type in all cases: cell-based, Escherichia coli
EKO-35 acrBD408A = test system: EKO-35 acrBD408A
Procedure: (§1) Synergy measurement using checkerboard analysis was performed in 96-well microtiter plates using the microdilution broth method, according to CLSI guidelines (Patel J. B., 2015). The cell inocula were prepared using the colony resuspension method. The minimum inhibitory concentrations (MICs) were defined as the lowest concentration that provided no growth, as determined by measurement of the OD600nm using a Synergy H1 microplate reader (BioTek). Susceptibility testing was performed in MHB II with a final volume of 100 μL. PAI3N (Bachem Americas) was solubilized in MHB II. […] Solvent controls were included in each plate.
(§2) The Fractional Inhibitory Concentration Index (FICI) was used to assess the synergy of PAI3N in combination with different antibiotics. The FICI represents the ΣFIC of each drug. The FICI for each drug was calculated using the following formula: FICI=FICA+FICB=(CA/MICA)+(CB/MICB). Where MICA and MICB are the MICs of drugs A (PAI3N/NMP) and B (antibiotic) alone, and CA and CB are the MICs of the drugs in combination. The effects of PAβN or NMP in combination with antibiotics were classified as: synergistic (FICI<0.5), additive (FICI>0.5-1.0), indifferent (FICI>1.0-2.0), and antagonistic (FICI>2.0). Fold increases in resistance provided by efflux pumps were calculated by dividing the MIC values of strains expressing efflux pumps by the MIC value of EKO-35.

EKO-35 = test system: EKO-35
Procedure: as §1, §2

wild-type E. coli K-12 = test system: wild-type E. coli K-12
Procedure: as §1, §2

ΔtolC-Pore = test system: ΔtolC-Pore
Procedure: as §1, §2

ΔtolC = test system: ΔtolC
Procedure: as §1, §2

[1] = test system: EKO-35 strains producing different efflux pumps (EKO-35 araC::X); assay: Checkerboard synergy (FICI) of PAβN or NMP with antibiotics
Procedure: as §1, §2

[2] = test system: EKO-35 porinated strain expressing acrD; assay: Checkerboard synergy (FICI), porinated strain
In short: (§3)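 Checkerboard broth microdilution in MHB II followed CLSI guidelines, with MIC defined as the lowest concentration giving no growth by OD600. FICI was calculated as CA/MICA + CB/MICB for PAβN or NMP combined with an antibiotic, with <0.5 classed as synergistic. Efflux-attributed fold resistance is the strain MIC divided by the EKO-35 MIC.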

[3] = test system: EKO-35 porinated strain expressing acrF (AcrEF); assay: Checkerboard synergy (FICI), porinated strain
In short: as §3

[4] = EKO-35 acrBD408A, PAβN + antibiotic
[5] = strain EKO-35 acrBD408A, NMP + antibiotic
[6] = strain EKO-35, NMP + antibiotic
[7] = strain ΔtolC Pore, NMP + antibiotic
[8] = EKO-35 acrEF, PAβN + antibiotic
[9] = strain EKO-35 acrD, NMP + antibiotic
[10] = EKO-35 acrD Pore, NMP + antibiotic
[11] = EKO-35 acrD Pore, PAβN + antibiotic
[12] = strain EKO-35 acrD Pore, NMP + antibiotic
[13] = EKO-35 acrEF Pore, PAβN + antibiotic
[14] = strain EKO-35 acrEF Pore, NMP + antibiotic

Structure (SMILES): Cc1onc(-c2ccccc2)c1C(=O)N[C@@H]1C(=O)N2[C@@H]1SC(C)(C)[C@@H]2C(=O)O [oxacillin]
- FICI (EKO-35 acrBD408A; EKO-35 acrBD408A, NMP + antibiotic): 2.000
- Effect (EKO-35 acrBD408A; [4]): Synergistic
- FICI (EKO-35 acrBD408A; [4]): 0.185
- MICb Alone (EKO-35 acrBD408A; EKO-35 acrBD408A, antibiotic alone (PAβN checkerboard)): 1 µg/mL
- MICb Combined (EKO-35 acrBD408A; EKO-35 acrBD408A, antibiotic in combination with PAβN): 0.06 µg/mL
- Effect (EKO-35 acrBD408A; [5]): — (indifferent (FICI >1.0))
- FICI (EKO-35 acrBD408A; [5]): 2.000
- MICb Alone (EKO-35 acrBD408A; strain EKO-35 acrBD408A, antibiotic alone): 0.13 µg/mL
- MICb Combined (EKO-35 acrBD408A; strain EKO-35 acrBD408A, antibiotic in combination with NMP): 0.13 µg/mL
- Effect (EKO-35; EKO-35, NMP + antibiotic): Additive
- FICI (EKO-35; EKO-35, NMP + antibiotic): 0.510
- Effect (EKO-35; EKO-35, PAβN + antibiotic): Synergistic
- FICI (EKO-35; EKO-35, PAβN + antibiotic): 0.323
- MICb Alone (EKO-35; EKO-35, antibiotic alone (PAβN checkerboard)): 0.5 µg/mL
- MICb Combined (EKO-35; EKO-35, antibiotic in combination with PAβN): 0.13 µg/mL
- interaction of PAβN in combination with the labelled antibiotic (FICI) (EKO-35; efflux-deficient strains EKO-35, EKO-35 acrBD408A, ΔtolC): synergized
- Effect (EKO-35; [6]): Additive (additive (FICI >0.5-1.0))
- FICI (EKO-35; [6]): 0.510
- MICb Alone (EKO-35; strain EKO-35, antibiotic alone): 0.5 µg/mL
- MICb Combined (EKO-35; strain EKO-35, antibiotic in combination with NMP): 0.13 µg/mL
- Effect (wild-type E. coli K-12; K-12, NMP + antibiotic): Synergistic
- FICI (wild-type E. coli K-12; K-12, NMP + antibiotic): 0.375
- Effect (wild-type E. coli K-12; K-12, PAβN + antibiotic): Synergistic
- FICI (wild-type E. coli K-12; K-12, PAβN + antibiotic): 0.188
- MICb Alone (wild-type E. coli K-12; K-12, antibiotic alone (PAβN checkerboard)): 512 µg/mL
- MICb Combined (wild-type E. coli K-12; K-12, antibiotic in combination with PAβN): 32 µg/mL
- Effect (wild-type E. coli K-12; strain K-12, NMP + antibiotic): Synergistic (Synergy (FICI ≤0.5))
- FICI (wild-type E. coli K-12; strain K-12, NMP + antibiotic): 0.375
- MICb Alone (wild-type E. coli K-12; strain K-12, antibiotic alone): 512 µg/mL
- Effect (ΔtolC-Pore; [7]): Additive (additive (FICI >0.5-1.0))
- FICI (ΔtolC-Pore; [7]): 0.531
- MICb Alone (ΔtolC-Pore; strain ΔtolC Pore, antibiotic alone): 1 µg/mL
- MICb Combined (ΔtolC-Pore; strain ΔtolC Pore, antibiotic in combination with NMP): 0.5 µg/mL
- Effect (ΔtolC-Pore; ΔtolC Pore, NMP + antibiotic): Additive
- FICI (ΔtolC-Pore; ΔtolC Pore, NMP + antibiotic): 0.531
- Effect (ΔtolC-Pore; ΔtolC Pore, PAβN + antibiotic): Additive
- FICI (ΔtolC-Pore; ΔtolC Pore, PAβN + antibiotic): 0.740
- MICb Alone (ΔtolC-Pore; ΔtolC Pore, antibiotic alone (PAβN checkerboard)): 0.25 µg/mL
- MICb Combined (ΔtolC-Pore; ΔtolC Pore, antibiotic in combination with PAβN): 0.06 µg/mL
- Effect (ΔtolC; strain ΔtolC, NMP + antibiotic): Additive (additive (FICI >0.5-1.0))
- FICI (ΔtolC; strain ΔtolC, NMP + antibiotic): 0.531
- MICb Alone (ΔtolC; strain ΔtolC, antibiotic alone): 1 µg/mL
- MICb Combined (ΔtolC; strain ΔtolC, antibiotic in combination with NMP): 0.5 µg/mL
- Effect (ΔtolC; ΔtolC, NMP + antibiotic): Additive
- FICI (ΔtolC; ΔtolC, NMP + antibiotic): 0.531
- Effect (ΔtolC; ΔtolC, PAβN + antibiotic): Synergistic
- FICI (ΔtolC; ΔtolC, PAβN + antibiotic): 0.313
- MICb Alone (ΔtolC; ΔtolC, antibiotic alone (PAβN checkerboard)): 1 µg/mL
- MICb Combined (ΔtolC; ΔtolC, antibiotic in combination with PAβN): 0.25 µg/mL
- Effect ([1]; EKO-35 acrB, NMP + antibiotic): Additive
- Effect ([1]; EKO-35 acrB, PAβN + antibiotic): Synergistic
- FICI ([1]; EKO-35 acrB, PAβN + antibiotic): 0.125
- MICb Alone ([1]; EKO-35 acrB, antibiotic alone (PAβN checkerboard)): 1024 µg/mL
- MICb Combined ([1]; EKO-35 acrB, antibiotic in combination with PAβN): 64 µg/mL
- Effect ([1]; EKO-35 acrD, NMP + antibiotic): Additive
- FICI ([1]; EKO-35 acrD, NMP + antibiotic): 0.750
- Effect ([1]; EKO-35 acrD, PAβN + antibiotic): Synergistic
- FICI ([1]; EKO-35 acrD, PAβN + antibiotic): 0.156
- MICb Combined ([1]; EKO-35 acrD, antibiotic in combination with PAβN): 16 µg/mL
- Effect ([1]; EKO-35 acrEF, NMP + antibiotic): Synergistic
- Effect [1, 8]: Synergistic
- FICI [1, 8]: 0.133
- MICb Alone ([1]; EKO-35 acrEF, antibiotic alone (PAβN checkerboard)): 256 µg/mL
- MICb Combined ([1]; EKO-35 acrEF, antibiotic in combination with PAβN): 2 µg/mL
- Effect ([1]; strain EKO-35 acrB, NMP + antibiotic): Additive (additive (FICI >0.5-1.0))
- MICb Combined ([1]; strain EKO-35 acrB, antibiotic in combination with NMP): 16 µg/mL
- Effect [1, 9]: Additive (additive (FICI >0.5-1.0))
- FICI [1, 9]: 0.750
- MICb Combined ([1]; strain EKO-35 acrD, antibiotic in combination with NMP): 32 µg/mL
- Effect ([1]; strain EKO-35 acrEF, NMP + antibiotic): Synergistic (Synergy (FICI ≤0.5))
- MICb Alone ([1]; strain EKO-35 acrEF, antibiotic alone): 256 µg/mL
- MICb Combined ([1]; strain EKO-35 acrEF, antibiotic in combination with NMP): 64 µg/mL
- Effect [2, 10]: Additive
- FICI [2, 10]: 0.750
- Effect [2, 11]: Synergistic
- FICI [2, 11]: 0.500
- MICb Alone ([2]; EKO-35 acrD Pore, antibiotic alone (PAβN checkerboard)): 4 µg/mL
- MICb Combined ([2]; EKO-35 acrD Pore, antibiotic in combination with PAβN): 1 µg/mL
- interaction of PAβN in combination with the labelled antibiotic (FICI) ([2]; acrD expressed in the porinated strain): still observed
- Effect [2, 12]: Additive (additive (FICI >0.5-1.0))
- FICI [2, 12]: 0.750
- MICb Alone ([2]; strain EKO-35 acrD Pore, antibiotic alone): 2 µg/mL
- MICb Combined ([2]; strain EKO-35 acrD Pore, antibiotic in combination with NMP): 0.5 µg/mL
- FICI ([3]; EKO-35 acrEF Pore, NMP + antibiotic): 1.000
- Effect [3, 13]: Synergistic
- FICI [3, 13]: 0.500
- MICb Alone ([3]; EKO-35 acrEF Pore, antibiotic alone (PAβN checkerboard)): 4 µg/mL
- MICb Combined ([3]; EKO-35 acrEF Pore, antibiotic in combination with PAβN): 1 µg/mL
- Effect [3, 14]: — (indifferent (FICI >1.0))
- FICI [3, 14]: 1.000
- MICb Alone ([3]; strain EKO-35 acrEF Pore, antibiotic alone): 2 µg/mL
- MICb Combined ([3]; strain EKO-35 acrEF Pore, antibiotic in combination with NMP): 1 µg/mL
